Test results: patent US7410767B1, “HLA-E binding” (Isis Innovation Limited, priority 1997, dated 2008)
Read-outs that look alike come from different tables or passages of the source. No end group written: not given here.

Molecular target: HLA-E (Homo sapiens, UniProt P13747, G128R)
Assay: in vitro peptide binding assay to HLA-E
Excerpt: Whatever form of HLA-E is used, a suitable peptide for binding in the HLA-E peptide groove will be required. […] Other peptides which bind to HLA-E may be used, for example peptides from viral proteins which may be the same as or different to MHC class I leader sequence peptides. […] A suitable assay for identifying synthetic peptides which bind to HLA-E is described in Braud et al 1997 Eur. J. Immunol. 27:1164-1169.

[1] = in vitro peptide binding assay, ratio of optical densities, read-out: Concentration of peptide required to obtain 50% of binding to HLA-E

| Compound | EC50 [1] [nM] | EC50 [nM] |
| --- | --- | --- |
| CSCC[C@H](NC(=O)[C@@H](N)C(C)C)C(=O)N[C@@H](C)C(=O)N1CCC[C@H]1C(=O)N[C@@H](CCCNC(=N)N)C(=O)N[C@H](C(=O)N[C@H](C(=O)N[C@@H](CC(C)C)C(=O)N[C@@H](CC(C)C)C(=O)O)C(C)C)[C@@H](C)O | 60 | – |
| CC(C)C[C@H](NC(=O)[C@H](CC(C)C)NC(=O)[C@@H](NC(=O)[C@@H](NC(=O)[C@H](CCCNC(=N)N)NC(=O)[C@@H]1CCCN1C(=O)[C@H](C)NC(=O)[C@@H](NC(=O)[C@@H](N)C(C)C)[C@@H](C)O)[C@@H](C)O)C(C)C)C(=O)O | > 100000 | – |
| VTAPRTLLL | > 100000 | – |
| CSCC[C@H](NC(=O)[C@@H](N)C(C)C)C(=O)N[C@@H](C)C(=O)N1CCC[C@H]1C(=O)N[C@@H](CCCNC(=N)N)C(=O)N[C@H](C(=O)N[C@@H](CC(C)C)C(=O)N[C@@H](CC(C)C)C(=O)N[C@@H](CC(C)C)C(=O)O)[C@@H](C)O | – | 300 |
| CSCC[C@H](NC(=O)[C@@H](N)C(C)C)C(=O)N[C@@H](C)C(=O)N1CCC[C@H]1C(=O)N[C@@H](CCCNC(=N)N)C(=O)N[C@H](C(=O)N[C@@H](CC(C)C)C(=O)N[C@H](C(=O)N[C@@H](CC(C)C)C(=O)O)C(C)C)[C@@H](C)O | 60 | – |
